Measured values from US4693977A, “Enzyme immobilization for producing cephalosporin antibiotics” (Queen's University at Kingston, priority 1986, dated 1987).
“And” between values parts separate entries of the source, which are not always exact repeats. Equal values may be shown once.

Experiments:
[1] = target: T1, cyclase, epimerase and ring expansion enzyme from a cell-free extract of S. clavuligerus (Streptomyces clavuligerus, UniProt P10621); assay: Cyclization / ring expansion of peptides with enzymes of S. clavuligerus cell-free extract (SPCFX); assay type: biochemical
T1 construct: from a cell-free extract of S. clavuligerus; endogenous in cells; host or cells: Streptomyces clavuligerus (cell-free extract / salt-precipitated cell-free extract)
T1 sequence (P10621 1-329): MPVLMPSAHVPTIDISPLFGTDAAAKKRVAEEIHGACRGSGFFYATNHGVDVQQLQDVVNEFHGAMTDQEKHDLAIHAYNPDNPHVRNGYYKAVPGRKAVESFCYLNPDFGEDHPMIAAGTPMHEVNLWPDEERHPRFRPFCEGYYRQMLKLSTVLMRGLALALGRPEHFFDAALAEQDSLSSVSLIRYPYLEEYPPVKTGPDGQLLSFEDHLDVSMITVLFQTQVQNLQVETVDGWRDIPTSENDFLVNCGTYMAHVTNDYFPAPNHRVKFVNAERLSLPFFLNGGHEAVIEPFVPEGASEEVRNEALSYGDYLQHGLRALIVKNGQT
Experimental: (§1) Cyclization activity of enzyme preparations was measured in reaction mixtures containing: bis-δ-(L-α-amino-adipyl-L-cysteinyl-D-valine) (ACV)2 0.306 mM, […] 4 mM, Na ascorbate 2.8 mM, FeSO4 45 μM, tris-HCl buffer 0.05M, pH 7.0, enzyme preparation 0.03-0.3 ml, final volume 0.4 ml. Reaction mixtures were incubated at 20° C. for up to 4 hours and stopped by cooling on ice or by the addition of 0.4 ml methanol.
(§2) Ring expansion activity was followed using the cyclization assay system described above but supplemented with ATP 0.5 mM, α-ketoglutarate 1 mM, KCl 7.5 mM, and MgSO4 7.5 mM. Total volume and incubation conditions were the same as for the cyclization assay.
(§3) To 0.4 ml of reaction mixture were added 0.9 mM of ACV dimer as produced in Example 4, 50.0 mM Tris-HCl pH 7.0 buffer and a mixture of the three enzymes as produced in Example 1 from a cell-free extract of S. clavuligerus, together with 45.0 μM ferrous sulfate and 2.8 mM ascorbic acid as optimized amounts of essential co-factors. DTT was added in excess of the amount required to reduce ACV dimer to ACV monomer. The reaction was continued for approximately 2 hours at 20° C. and then terminated by addition of 0.4 ml methanol to precipitate protein.
(§4) The procedures of Example 7 were repeated using L-aspartyl, L-glutamyl, D-α-aminoadipyl, adipyl, glycyl-L-α-aminoadipyl and N-acetyl-L-α-aminodipyl-containing peptides. […] A prokaryotic system is, therefore, required. Modification of the valinyl moiety, as noted above, has been considered in detail. Substrates modified in the valinyl moiety such as: [drawing 17] where R1 is H, a lower alkyl or functionalized carboxylic group; and R2 is H or a lower alkyl group may be cyclized with carbon-sulfur bond formation with retention of configuration at the beta carbon of the valine analog, leading to isopenicillin N analogs of the type: [drawing 18] Following epimerization to penicillin N analogs of the type: [drawing 19] ring expansion leads to cephalosporin analogs of the type: with transfer of the beta carbon atom attached to C2 of (11) into C2 of the six membered ring.
(§5) Methanol inactivated reaction mixtures (from Examples 7 and 8) were centrifuged at 12,000×g for 5 min to remove precipitated protein before analysis. Reaction mixtures from Example 9 were examined directly. The chromatographic equipment used was: M-6000A pump, UK-6 injector, M-480 variable wavelength director, M-420 data module and Bondapak-C18 column (Rad Pak A in a Z module) as stationary phase. All equipment was from Waters Scientific Co., Mississauga, Ontario. The mobile phase consisted of methanol/0.05 M potassium phosphate buffer, pH 4.0 (5/95). The methanol content of the mobile phase depended upon the particular separation and the source of the material e.g. Examples 7 and 8 or Example 9. A short precolumn (packed with Bondapak C18 /Corasil) was used to guard the main column. UV-absorbing material was detected at 220 nm at a sensitivity of 0.02 AUFS.

[2] = system: cyclase, epimerase and ring expansion enzyme from a cell-free extract of S. clavuligerus; assay: as above; assay type: biochemical
Experimental: as §1, §2, §3, §4, §5

[3] = system: E. coli Ess + penicillinase; assay: Agar diffusion bioassay of ring expansion reaction mixtures, plates with penicillinase; assay type: cell-based, Escherichia coli; details: for Zone of Inhibition, E. coli Ess + penicillinase: SPCFX, 2h at 20° C., 20 μl; for Cephalosporin C "equivalents" / Zone of Inhibition: immobilized enzyme reactor reaction mixture
Experimental: (§6) 2 ml of the reaction mixture was applied to the immobilized enzyme reactor by means of a peristaltic pump operating at 40 ml/h. Effluent was collected into a 13×100 mm test tube from which the original reaction mixture was pumped, and therefore was recycled continuously through the enzyme reactor. The enzyme reactor was operated at 21° C. and 20 μl aliquots were removed at 15 minute time intervals for analysis for antibiotic formation. (Table I).
(§7) Antibiotic in reaction mixtures was estimated by the agar diffusion method. Cyclization reaction mixtures were bioassayed using Micrococcus luteus ATCC. 9341 and Escherichia coli Ess as indicator organisms. Ring expansion reaction mixtures were bioassayed using E. coli Ess as indicator organism in agar plates supplemented with penicillinase at 2×10^5 units/ml
(§8) The procedure of Example 7 was repeated with ACV analogs in which valine was replaced by alpha-aminobutyric acid (R1 =R2 =H) and allo-isoleucine (R1 =H, R2 =C2 H5), as follows: (AC-aminobutyrate)2 (ACAB)2 and (AC-alloisoleucine)2 (ACI)2 were dissolved in water, neutralized, and lyophilized in 0.1 and 1.0 mg amounts. These peptides were then used as substrates in cyclization and ring expansion assays as follows: One hundred micrograms of (ACV)2 from Example 6 was used as substrate in a cyclization and a ring expansion assay system using 0.1 ml of salt-precipitated cell-free extract as enzyme source in each case. (Final concentration of (ACV)2 is 0.306 mM). Identical cyclization and ring expansion assays were set up in which 100 μg (ACAB)2 or 1.0 mg (ACI)2 replaced the (ACV)2 as substrate and 0.3 ml of salt precipitated cell-free extract was used as enzyme source. No substrate controls were also prepared. The reaction mixtures were incubated for 2h at 20° C. At the end of incubation 20 μl amounts of the cyclization reaction mixtures were bioassayed versus M. luteus and E. coli Ess; 20 μl amounts of the ring expansion reaction mixtures were bioassayed versus E. coli Ess plus and minus penicillinase.

[4] = system: Micrococcus luteus ATCC. 9341; assay: Agar diffusion bioassay of cyclization reaction mixtures versus M. luteus; assay type: cell-based; details: cyclization reaction mixture, SPCFX, 2h at 20° C., 20 μl
Source text: as §7, §8

Escherichia coli Ess = assay: Agar diffusion bioassay of reaction mixtures versus E. coli Ess; assay type: cell-based; details: for Zone of Inhibition, E. coli Ess: SPCFX, 2h at 20° C., 20 μl
Source text: as §7, §8

[5] = target: T2, immobilized SPCFX (cyclase, epimerase, ring expansion enzyme) on DEAE Trisacryl (Streptomyces clavuligerus, UniProt P10621); assay: Conversion of ACV on immobilized SPCFX column (immobilized enzyme reactor), HPLC; assay type: biochemical; details: 1 mg ACV, cycled 1.5 hours at 40 ml per hour through 2 ml immobilized SPCFX
T2 construct: Cell-free extracts were prepared by washing 40-48 h cells of S. clavuligerus; endogenous in cells
T2 sequence (P10621 1-329): T1 sequence (P10621 1-329)
Experimental: DEAE-Trisacryl® resin was loaded into a column 0.4×5.8 cm (packed bed volume, 1 ml), washed with 3×2 ml of the same EDTA buffer, and allowed to drain to dryness by gravity. One milliliter of the salt-precipitated cell-free extract above was applied to the column. The effluent was collected and reapplied to the column twice to ensure complete enzyme loading. The column was washed with 2×1 ml of the same EDTA buffer, drained dry and centrifuged for 3 min. at 500×g to remove excess buffer. This immobilized enzyme reactor was stored at 4° C. when not in use.
as §6
Methanol inactivated reaction mixtures (from Examples 7 and 8) were centrifuged at 12,000×g for 5 min to remove precipitated protein before analysis. Reaction mixtures from Example 9 were examined directly. […] UV-absorbing material was detected at 220 nm at a sensitivity of 0.02 AUFS. […]

[6] = ring expansion reaction mixture
[7] = mixture of the three enzymes, approx. 2 hours at 20° C., without alpha-ketoglutarate

CC(=O)N[C@@H](CCCC(=O)N[C@@H](CS)C(=O)N[C@@H](C(=O)O)C(C)C)C(=O)O
cyclization of the peptide ([1]; procedures of Example 7): Cyclization was observed | conversion product with SPCFX ([2]; via an initial deacylation to ACV): penicillin N and isopenicillin N

CC[C@@H](NC(=O)[C@H](CSSC[C@H](NC(=O)CCC[C@H](N)C(=O)O)C(=O)N[C@H](CC)C(=O)O)NC(=O)CCC[C@H](N)C(=O)O)C(=O)O [(ACAB)2]
formation of penicillinase-insensitive antibiotic [3, 6]: do not form penicillinase-insensitive antibiotic | Zone of Inhibition, E. coli Ess + penicillinase [3, 6]: 0 mm | Zone of Inhibition, M. luteus [4]: 8.0 mm | antibiotic activity equivalent to a solution of cephalosporin C against E. coli Ess (Escherichia coli Ess; cyclization reaction mixture): 0.9 µg/mL | Zone of Inhibition, E. coli Ess (Escherichia coli Ess; cyclization reaction mixture): 12.5 mm | formation of antibiotic affecting E. coli Ess (Escherichia coli Ess; [6]): nor do they form any antibiotic affecting E. coli Ess | Zone of Inhibition, E. coli Ess (Escherichia coli Ess; [6]): 8.0 mm

CC[C@H](C)[C@@H](NC(=O)[C@H](CSSC[C@H](NC(=O)CCC[C@H](N)C(=O)O)C(=O)N[C@@H](C(=O)O)[C@@H](C)CC)NC(=O)CCC[C@H](N)C(=O)O)C(=O)O [(ACI)2]
antibiotic activity equivalent to a solution of cephalosporin C, E. coli Ess + penicillinase plates [3, 6]: 0.9 µg/mL | Zone of Inhibition, E. coli Ess + penicillinase [3, 6]: 12.5 mm | Zone of Inhibition, M. luteus [4]: 13.0 mm | antibiotic activity equivalent to a solution of cephalosporin C against E. coli Ess (Escherichia coli Ess; cyclization reaction mixture): 4.85 µg/mL | Zone of Inhibition, E. coli Ess (Escherichia coli Ess; cyclization reaction mixture): 20.0 mm | Zone of Inhibition, E. coli Ess (Escherichia coli Ess; [6]): 20.0 mm

CC(C)[C@@H](NC(=O)[C@H](CSSC[C@H](NC(=O)CCC[C@H](N)C(=O)O)C(=O)N[C@@H](C(=O)O)C(C)C)NC(=O)CCC[C@H](N)C(=O)O)C(=O)O [(ACV)2, bis-δ-(L-α-amino-adipyl-L-cysteinyl-D-valine)]
Cephalosporin C "equivalents" ([3]; sample time 0 min): 0 | Zone of Inhibition ([3]; sample time 0 min, 20 μl aliquot): 0 mm | Cephalosporin C "equivalents" ([3]; sample time 15 min): .031 μm | Zone of Inhibition ([3]; sample time 15 min): 15 mm | Cephalosporin C "equivalents" ([3]; sample time 30 min): .086 μm | Zone of Inhibition ([3]; sample time 30 min): 19.5 mm | Cephalosporin C "equivalents" ([3]; sample time 45 min): .062 μm | Zone of Inhibition ([3]; sample time 45 min): 18.5 mm | Cephalosporin C "equivalents" ([3]; sample time 60 min): .136 μm | Zone of Inhibition ([3]; sample time 60 min): 21.5 mm | Cephalosporin C "equivalents" ([3]; sample time 75 min): .136 μm | Zone of Inhibition ([3]; sample time 75 min): 21.5 mm | antibiotic activity equivalent to a solution of cephalosporin C, E. coli Ess + penicillinase plates [3, 6]: 7.6 µg/mL | Zone of Inhibition, E. coli Ess + penicillinase [3, 6]: 22 mm and 22.0 mm | Zone of Inhibition, M. luteus [4]: 29.0 mm | antibiotic activity equivalent to a solution of cephalosporin C against E. coli Ess (Escherichia coli Ess; cyclization reaction mixture): 29.3 µg/mL | Zone of Inhibition, E. coli Ess (Escherichia coli Ess; cyclization reaction mixture): 28.0 mm | Zone of Inhibition, E. coli Ess (Escherichia coli Ess; [6]): 28.5 mm

CC(C)[C@@H](NC(=O)[C@H](CS)NC(=O)CCC[C@H](N)C(=O)O)C(=O)O [ACV, L-aminoadipyl-L-cysteinyl-D-valine]
conversion product by bioassay and HPLC [1, 7]: converted to a mixture of isopenicillin N and penicillin N | ring expansion to a cephalosporin [2, 7]: did not occur | conversion product ([2]; mixture of the three enzymes, with 1 mM alpha-ketoglutarate): converted to desacetoxycephalosporin C | conversion of ACV into a mixture of isopenicillin N, penicillin N, desacetoxycephalosporin C and desacetylcephalosporin C, by HPLC [5]: approximately 90%

CC(C)[C@@H](NC(=O)[C@H](CS)NC(=O)CCCCC(=O)O)C(=O)O [adipyl-containing peptide]
cyclization of the peptide ([1]; procedures of Example 7): Cyclization was observed | cyclization to the corresponding penicillin, carboxybutylpenicillin ([1]; procedures of Example 7): ~20%
